Experimental data taken from US6773891B2 (priority 1998, dated 2004).
Read-outs that look alike come from different tables or passages of the source.

Assays:
mice = settings: for Titer, 1 injection / Titer, 2 injections / Titer, 3 injections: s.c.; for Titer, 2 injections: one week after 2nd injection; for Titer, 3 injections: one week after 3rd injection
Experimental: Animals were immunized using standard protocols. In mice, three subcutaneous injections of vaccine were administered, two weeks apart, with test bleeds performed one week following the first and second injection, and exsanguination occurring one week following the third injection. Serum samples were evaluated in an ELISA assay, described in Example 10. The ELISA assay utilized 3′ AMNic-pGlu bound to microtiter plates.
Antibodies generated against 3′ AMNic vaccine were evaluated using a 3′ AMNic-pGlu ELISA as follows: Dynatech Immulon 4 microtiter plates (Chantilly, Va.) were coated 100 μL/well with 10 ng/mL 3′ AMNic-pGlu in 0.1 M bicarbonate buffer, pH 9.6 and allowed to incubate overnight (ON) at room temperature (RT). The plates were then aspirated and blocked with 1% BSA in PBS for one hour at RT. […] The plates were washed (9% NaCl, 0.1% BRIJ) five times and diluted samples and reference serum were loaded. The reference and samples were 2-fold diluted down the plates for a final volume of 100 μL/well and plates are incubated for 1 hour at 37° C. The plates were then washed again and loaded 100 μL/well with peroxidase-conjugated anti-species IgG, Fc specific (Jackson, West Grove, Pa.) diluted in PBB and incubated at 37° C. for one hour. The plates were washed and incubated 10 minutes at RT with 100 μl/well 3,3′,5,5′-tetramethylbenzidine (TMB) substrate (KPL, Gaithersburg, Md.) diluted 1:1 with H2O2 (supplied with TMB reagent kit). The reaction is stopped with the addition of 100 μL/well 1 M phosphoric acid and read at 450 nm on an MR4000 microtiter plate reader (Dynatech). Samples are quantified in relation to the reference using parallel line analysis.

[1] = 0.5 mg/mL in 1 mL glass vials
Experimental: A stability study of the nicotine-carrier conjugate of example 4 was carried out. The study used the vaccine vialed in 1 mL glass vials at a concentration of 0.5 mg/mL and the stability of the vialed vaccine was tested at three different temperatures: −70° C., 2 to 8° C. and room temperature.
The stability study consisted of monitoring and assaying the conjugate vaccine using the following:
1.) Visual observation to look for any particulates formed (turbidity, precipitation).
2.) Checking for any significant pH change.
3.) Size exclusion chromatography profile in combination with UV absorption at 260 and 280 nm to determine if the ratio of nicotine incorporation changed.
4.) Reversed phase chromatography to check for any carrier protein degradation.
5.) SDS PAGE with silver staining looking for any proteolytic cleavage of the conjugated protein.

rats [2] = settings: for Titer, 1 injection / Titer, 2 injections / Titer, 3 injections: i.p.; for Titer, 1 injection: one week after 1st injection; for Titer, 2 injections: one week after 2nd injection; for Titer, 3 injections: one week after 3rd injection
Experimental: Rats were immunized intraperitoneally with the vaccines three times. Injections were given two weeks apart with test bleeds performed one week following the first and second injection. The rats were then exsanguinated one week after the third injection. Freund's complete adjuvant was used for the first injection, and incomplete Freund's adjuvant for the subsequent injections. Serum samples were evaluated in an ELISA assay.
(§1) Antibodies generated against 3′ AMNic vaccine were evaluated using a 3′ AMNic-pGlu ELISA as follows: Dynatech Immulon 4 microtiter plates (Chantilly, Va.) were coated 100 μL/well with 10 ng/mL 3′ AMNic-pGlu in 0.1 M bicarbonate buffer, pH 9.6 and allowed to incubate overnight (ON) at room temperature (RT). The plates were then aspirated and blocked with 1% BSA in PBS for one hour at RT. […] The plates were washed ([…], 0.1% BRIJ) five times and diluted samples and reference serum were loaded. The reference and samples were 2-fold diluted down the plates for a final volume of 100 μL/well and plates are incubated for 1 hour at 37° C. The plates were then washed again and loaded 100 μL/well with peroxidase-conjugated anti-species IgG, Fc specific (Jackson, West Grove, Pa.) diluted in PBB and incubated at 37° C. for one hour. The plates were washed and incubated 10 minutes at RT with 100 μl/well 3,3′,5,5′-tetramethylbenzidine (TMB) substrate (KPL, Gaithersburg, Md.) diluted 1:1 with H2O2 (supplied with TMB reagent kit). The reaction is stopped with the addition of 100 μL/well 1 M phosphoric acid and read at 450 nm on an MR4000 microtiter plate reader (Dynatech). Samples are quantified in relation to the reference using parallel line analysis.

rabbits = settings: i.m., dose 100 μg, arithmetic mean six to seven weeks after third injection
Experimental: as §1

rats [3] = settings: three i.p. injections of 25 μg vaccine, 3 and 10 min after 0.03 mg/kg nicotine infusion over 10 seconds
Experimental: To evaluate the present immunotherapy, an animal model has been developed to simulate the rapid absorption of nicotine from two cigarettes in humans. […] In this model, rats were administered 0.03 mg/kg of nicotine by i.v. infusion over 10 sec., simulating the rapid absorption of nicotine from the lungs in human smokers. Blood samples were taken at 3 and 10 min after nicotine injection for measurement of plasma nicotine.

[4] = cited from earlier work
rats [5] = test: Locomotor effects of nicotine; type: in vivo; settings: subcutaneous injection
Description: This experiment used was designed to determine whether passive immunization could prevent an immediate CNS mediated action of nicotine. The rat model used in this experiment was developed by Dr. David Malin and is described in Malin et al. Nicotine-specific IgG reduced distribution to brain and attenuates its behavioral and cardiovascular effects in rats, submitted to the Fifth Annual Meeting of the Society for Research on Nicotine and Tobacco, San Diego, Calif., Mar. 5-7, 1999; To establish a baseline, the effect of a subcutaneous injection of 0.8 mg/kg of nicotine tartrate on locomotor activity level of rats was measured. The 0.8 mg/kg dose of nicotine tartrate is the highest dose that could be used without inducing locomotor abnormalities.
There was an increase in activity level after nicotine injection in rats that were not pre-treated with anti-[3′ AMNic-Suc-rEPA], and in rats that were pretreated with 50 mg of normal rabbit serum IgG. See FIG. 6A, right bar and FIG. 6B, left bar. This effect was suppressed by pretreating the animals with 50 mg of anti-[3′ AMNic-Suc-rEPA] immune IgG (FIG. 6B, right bar).

3′aminomethyl-(−)-nicotine-succinyl-rEPA [3′AMNic-Suc-rEPA]
Booster response (mice): showed the ability to induce the booster response | Titer, 1 injection (mice; dose 1 μg (protein assay), arithmetic mean one week after 1st injection): 0 | Titer, 2 injections (mice; dose 1 μg (protein assay)): 36 | Titer, 3 injections (mice; dose 1 μg (protein assay)): 4,280 | Titer, 1 injection (mice; dose 5 μg (protein assay), one week after 1st injection): 1 | Titer, 2 injections (mice; dose 5 μg (protein assay)): 884 | Titer, 3 injections (mice; dose 5 μg (protein assay)): 10,727 | Titer, 1 injection (mice; dose 15 μg (protein assay), one week after 1st injection): 3 | Titer, 2 injections (mice; dose 15 μg (protein assay)): 2,476 | Titer, 3 injections (mice; dose 15 μg (protein assay)): 14,160 | Stability of the conjugate ([1]; −70° C. and 2 to 8° C.): stability of the conjugate for six months | Stability of the conjugate ([1]; −70° C., 2 to 80° C. and room temperature): stability of the conjugate for six months | Booster response (rats [2]): showed the ability to induce the booster response | Titer, 1 injection (rats [2]; Freund's adjuvant, dose 15 μg (protein assay)): 18 | Titer, 2 injections (rats [2]; dose 15 μg (protein assay)): 7,942 | Titer, 3 injections (rats [2]; dose 15 μg (protein assay)): 9,947 | Titer, 1 injection (rats [2]; dose 25 μg (protein assay)): 4 | Titer, 2 injections (rats [2]; dose 25 μg (protein assay)): 1,446 | Titer, 3 injections (rats [2]; dose 25 μg (protein assay)): 5,991 | Titer, 1 injection (rats [2]; dose 50 μg (protein assay)): 353 | Titer, 2 injections (rats [2]; dose 50 μg (protein assay)): 7,211 | Titer, 3 injections (rats [2]; dose 50 μg (protein assay)): 8,996 | Titer (rabbits): 132,000 | Nicotine in plasma versus non-immunized controls (rats [3]): increased levels of nicotine in plasma

3-aminomethyl-(−)-nicotine-polyglutamic acid-ADH-rEPA [3′AMNic-pGlu-ADH-rEPA]
Booster response (mice): showed the ability to induce the booster response | Titer, 1 injection (mice; dose 2 μg (dry weight of lyophilized conjugate), one week after 1st injection): 2 | Titer, 2 injections (mice; dose 2 μg (dry weight)): 739 | Titer, 3 injections (mice; dose 2 μg (dry weight)): 6,586 | Titer, 1 injection (mice; dose 10 μg (dry weight), one week after 1st injection): 2 | Titer, 2 injections (mice; dose 10 μg (dry weight)): 2,490 | Titer, 3 injections (mice; dose 10 μg (dry weight)): 9,573 | Titer, 1 injection (mice; dose 30 μg (dry weight), one week after 1st injection): 11 | Titer, 2 injections (mice; dose 30 μg (dry weight)): 2,822 | Titer, 3 injections (mice; dose 30 μg (dry weight)): 8,195 | Booster response (rats [2]): showed the ability to induce the booster response | Titer, 1 injection (rats [2]; dose 100 μg (dry weight of lyophilized conjugate)): 0 | Titer, 2 injections (rats [2]; dose 100 μg (dry weight)): 1,067 | Titer, 3 injections (rats [2]; dose 100 μg (dry weight)): 3,752 | Titer (rabbits): 147,000

CN1CCC[C@H]1c1cccnc1 [nicotine, (S)-(−)-nicotine]
Time to peak levels of nicotine in the blood ([4]; after smoking a cigarette): 10 to 15 min | Arterial versus venous nicotine concentrations ([4]; humans, smoking a cigarette): 10 fold

CN1CCCC1c1cccnc1.O=C(O)C(O)C(O)C(=O)O (stereo not drawn) [nicotine tartrate]
Highest dose without inducing locomotor abnormalities (rats [5]): 0.8 mg/kg
